{
  "source": "patent US7101902B2",
  "about": "“2-guanidinylimidazolidinedione compounds and methods of making and using thereof” (The United States of America as represented by the …, priority 2003, dated 2006)",
  "data": [
    {"system": "Plasmodium yoelii (17×)", "test": "Sporozoite induced test in mouse (causal prophylactic activity)", "assay_type": "in vivo", "details": "sporozoite challenged CD-1 mice; single dose 4 hours before inoculation; oral administration", "procedure": "The causal prophylactic antimalarial activity of the new carbamate derivatives were assessed in a sporozoites challenged mouse model according to the following protocol and the results are shown in Table 4 and Table 5.\nEach compound was ground with a mortar and pestle and suspended in 0.5% hydroxyethylcellulose and 0.1% Tween 80 for compounds to be administered PO and those given SC were suspended in peanut oil. Each compound is prepared at 3 different dose levels.\nCompounds were administered either PO or SC to mice once 4 hours before inoculation of sporozoites.\nFour-week-old male CD-1 mice, purchased from Charles River and weighing about 16 to about 17 grams were placed 5 per cage and allowed to acclimate for 4 days before being treated and then inoculated with sporozoites. They were fed food and water ad-lib and maintained at 76° F. with 12 hour light and 12 hour darkness. The cages and water bottles were changed biweekly. The mice are weighed on Days 0, 3 and 6 then biweekly when blood films were taken.\nPlasmodium yoelii (17×) was used to infect mice that will be used to infect the mosquitoes.\nMice were given a single dose of test compound 4 hours before being inoculated intraperitoneally with 2.5×10^5 sporozoites of Plasmodium yoelii on Day 0. Whole body weights were taken on Day 0 and Day 6 then twice a week for 31 days. A blood film was taken on Day 5 and then twice a week for 31 days. Mice loosing greater than about 20% of their body weight were sacrificed. All mice alive on Day 31 with no parasites in a blood film were considered cured. Donor mice used to infect the mosquitoes were infected with 2.5×10^4 parasitized erythrocytes. The mosquitoes were allowed to feed on these malaria-infected mice on Day 4 of their infection when the parasitemia was low.\nA compound was considered active against either the sporozoite or the EE stage if no parasites were found in the blood films taken on Day 5 or on subsequent blood films taken weekly for 31 days.\nMice alive on Day 31 with no parasites found in any blood films were considered cured.", "units": {"Minimum Protective Dose Against P. yoelii": "mg/kg"}, "values": [
      {"compound": "CC(C)COC(=O)N=C(N=C1NC(=O)C(=O)N1C(C)C)Nc1ccc(Cl)c(Cl)c1", "note": "[Compound 3b, N-(3,4-dichlorophenyl)-N′-(isobutoxycarbonyl)-N″-(1-isopropyl-4,5-dioxo-imidazolidin-2-ylidene)-guanidine]", "Minimum Protective Dose Against P. yoelii": ">40"},
      {"compound": "CCCCCCOC(=O)N=C(N=C1NC(=O)C(=O)N1C(C)C)Nc1ccc(Cl)c(Cl)c1", "note": "[Compound 3e, N-(3,4-dichlorophenyl)-N′-(1-hexyloxycarbonyl)-N″-(1-isopropyl-4,5-dioxo-imidazolidin-2-ylidene)-guanidine]", "Minimum Protective Dose Against P. yoelii": 40},
      {"compound": "C=CCCOC(=O)N=C(N=C1NC(=O)C(=O)N1C(C)C)Nc1ccc(Cl)c(Cl)c1", "note": "[Compound 3g, N-(3,4-dichlorophenyl)-N′-(3-butenyloxycarbonyl)-N″-(1-isopropyl-4,5-dioxoimidazolidin-2-ylidene)-guanidine]", "Minimum Protective Dose Against P. yoelii": 160},
      {"compound": "CC(C)N1C(=O)C(=O)NC1=NC(=NC(=O)OCCOCc1ccccc1)Nc1ccc(Cl)c(Cl)c1", "note": "[Compound 3h, N-(3,4-dichloro-phenyl)-N′-(2-benzyloxyethoxycarbonyl)-N″-(1-isopropyl-4,5-dioxo-imidazolidin-2-ylidene)-guanidine]", "Minimum Protective Dose Against P. yoelii": 160},
      {"compound": "CC(C)NC(=NC(=O)OC(C)(C)C)N=C1NC(=O)C(=O)N1c1ccc(Cl)c(Cl)c1", "note": "[Compound 4c, N-[1-(3,4-dichlorophenyl)-4,5-dioxo-imidazolidin-2-ylidene]-N′-isopropyl-N″-(tert-butoxycarbonyl)guanidine]", "Minimum Protective Dose Against P. yoelii": 1.25},
      {"compound": "CCCCCCOC(=O)N=C(N=C1NC(=O)C(=O)N1c1ccc(Cl)c(Cl)c1)NC(C)C", "note": "[Compound 4e, N-[1-(3,4-dichlorophenyl)-4,5-dioxo-imidazolidin-2-ylidene]-N′-isopropyl-N″-(1-hexyloxycarbonyl)guanidine]", "Minimum Protective Dose Against P. yoelii": 5},
      {"compound": "C[C@H]1[C@@H](O)O[C@@H]2O[C@@]3(C)CC[C@H]4[C@H](C)CC[C@@H]1[C@@]24OO3", "note": "[Dihyroartemisinin, reference compound]", "Minimum Protective Dose Against P. yoelii": 160},
      {"compound": "COc1cc(NC(C)CCCN)c2ncccc2c1", "note": "(centres unmarked) [Primaquine, reference compound]", "Minimum Protective Dose Against P. yoelii": 40},
      {"compound": "COc1cc(C)c2c(Oc3cccc(C(F)(F)F)c3)c(OC)cc(NC(C)CCCN)c2n1", "note": "(centres unmarked) [Tafenoguine, reference compound]", "Minimum Protective Dose Against P. yoelii": 2.5},
      {"compound": "N-(3,4-dichloro-phenyl)-N′-(5-methyl-2-oxo-1,3-dioxol-4-yl)methyl-N″-(1-isopropyl-4,5-dioxo-imidazolidin-2-ylidene)guanidine [Compound 3f]", "Minimum Protective Dose Against P. yoelii": ">40"},
      {"compound": "N-(3,4-dichlorophenyl)-N′-(benzyloxycarbonyl)-N″-(1-isopropyl-4,5-dioxo-imidazolidin-2-ylidene)-guanidine [Compound 3d]", "Minimum Protective Dose Against P. yoelii": ">160"}
    ]}
  ]
}
